Laboratory results published in ChEMBL document CHEMBL1201862, “PubChem BioAssay data set” (2004).
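Five compound concentrations were applied to cells in 96-well plates for 48 hours; endpoints were derived by simple linear interpolation of the resulting dose-response curve. Here, GI50 denotes the concentration required for 50% inhibition of growth.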 Activity calls are given as the source filed them. Rule as the data show it: active = GI50 up to about 1.1 µM and inactive = higher.

Legend:
Test in all cases: inhibition of tumour cell growth, NCI panel, 48 h
Malme-3M = system: Malme-3M
SF-539 = system: SF-539
UACC-62 = system: UACC-62
IGROV-1 = system: IGROV-1
DU-145 = system: DU-145
COLO 205 = system: COLO 205
786-0 = system: 786-0
HT-29 = system: HT-29
HCT-15 = system: HCT-15
Hs-578T = system: Hs-578T
HCT-116 = system: HCT-116
CAKI-1 = system: CAKI-1
T47D = system: T47D
LOX IMVI = system: LOX IMVI
SK-OV-3 = system: SK-OV-3
SK-MEL-2 = system: SK-MEL-2
OVCAR-5 = system: OVCAR-5
CCRF-CEM = system: CCRF-CEM
A549 = system: A549
NCI-H460 = system: NCI-H460
ACHN = system: ACHN
OVCAR-4 = system: OVCAR-4
EKVX = system: EKVX
SR = system: SR
UACC-257 = system: UACC-257
PC-3 = system: PC-3
MDA-MB-435 = system: MDA-MB-435
UO-31 = system: UO-31
SF-295 = system: SF-295
M14 = system: M14
NCI-H522 = system: NCI-H522
HCC 2998 = system: HCC 2998
KM12 = system: KM12
SW-620 = system: SW-620
U-251 = system: U-251
NCI-H23 = system: NCI-H23
OVCAR-3 = system: OVCAR-3
MDA-MB-231 = system: MDA-MB-231
HOP-62 = system: HOP-62
MCF7 = system: MCF7
BT-549 = system: BT-549
SK-MEL-28 = system: SK-MEL-28
RPMI-8226 = system: RPMI-8226
MOLT-4 = system: MOLT-4
NCI/ADR-RES = system: NCI/ADR-RES
SF-268 = system: SF-268
K562 = system: K562
SK-MEL-5 = system: SK-MEL-5
SNB-75 = system: SNB-75
NCI-H226 = system: NCI-H226
SNB-19 = system: SNB-19
MDA-N = system: MDA-N
RXF 393 = system: RXF 393
TK-10 = system: TK-10
HOP-92 = system: HOP-92
A498 = system: A498
SN12C = system: SN12C
OVCAR-8 = system: OVCAR-8
HL-60 = system: HL-60

SMILES: O=C(/C=C/c1cccc(Oc2ccccc2)c1)NCc1ccc(C(=O)NCc2ccccc2)cc1
- GI50 (Malme-3M): 41.3 µM (inactive)
- GI50 (SF-539): 0.865 µM (active)
- GI50 (UACC-62): 79.8 µM (inactive)
- GI50 (IGROV-1): 79.8 µM (inactive)
- GI50 (DU-145): > 100 µM (inactive)
- GI50 (COLO 205): > 100 µM (inactive)
- GI50 (786-0): 29 µM (inactive)
- GI50 (HT-29): 17.3 µM (inactive)
- GI50 (HCT-15): > 100 µM
- GI50 (Hs-578T): > 100 µM (inactive)
- GI50 (HCT-116): 50.6 µM (inactive)
- GI50 (CAKI-1): 43.8 µM (inactive)
- GI50 (T47D): > 100 µM (inactive)
- GI50 (LOX IMVI): > 100 µM (inactive)
- GI50 (SK-OV-3): 4.55 µM (inactive)
- GI50 (SK-MEL-2): 26 µM (inactive)
- GI50 (OVCAR-5): > 100 µM (inactive)
- GI50 (CCRF-CEM): > 100 µM (inactive)
- GI50 (A549): > 100 µM (inactive)
- GI50 (NCI-H460): > 100 µM (inactive)
- GI50 (ACHN): 71 µM (inactive)
- GI50 (OVCAR-4): 31 µM (inactive)
- GI50 (EKVX): > 100 µM (inactive)
- GI50 (SR): > 100 µM (inactive)
- GI50 (UACC-257): > 100 µM (inactive)
- GI50 (PC-3): > 100 µM (inactive)
- GI50 (MDA-MB-435): > 100 µM (inactive)
- GI50 (UO-31): > 100 µM (inactive)
- GI50 (SF-295): 21.8 µM (inactive)
- GI50 (M14): > 100 µM (inactive)
- GI50 (NCI-H522): 98.9 µM (inactive)
- GI50 (HCC 2998): > 100 µM (inactive)
- GI50 (KM12): > 100 µM (inactive)
- GI50 (SW-620): > 100 µM (inactive)
- GI50 (U-251): 38.1 µM (inactive)
- GI50 (NCI-H23): 31 µM (inactive)
- GI50 (OVCAR-3): 68.5 µM (inactive)
- GI50 (MDA-MB-231): 52.2 µM (inactive)
- GI50 (HOP-62): 2.96 µM (inactive)
- GI50 (MCF7): > 100 µM (inactive)
- GI50 (BT-549): 60.1 µM (inactive)
- GI50 (SK-MEL-28): > 100 µM (inactive)
- GI50 (RPMI-8226): > 100 µM (inactive)
- GI50 (MOLT-4): > 100 µM (inactive)
- GI50 (NCI/ADR-RES): 35.3 µM (inactive)
- GI50 (SF-268): > 100 µM (inactive)
- GI50 (K562): > 100 µM (inactive)
- GI50 (SK-MEL-5): > 100 µM (inactive)
- GI50 (SNB-75): 12.1 µM (inactive)
- GI50 (NCI-H226): 27.5 µM (inactive)
- GI50 (SNB-19): 32.4 µM (inactive)
- GI50 (MDA-N): > 100 µM (inactive)
- GI50 (RXF 393): 12.2 µM (inactive)
- GI50 (TK-10): 46.5 µM (inactive)
- GI50 (HOP-92): 37.8 µM (inactive)
- GI50 (A498): 51.5 µM (inactive)
- GI50 (SN12C): > 100 µM (inactive)
- GI50 (OVCAR-8): 14.1 µM (inactive)

SMILES: Br[C@@H]1[C@H]2c3nc4ccccc4nc3[C@@H]1C[C@H]2Br
- GI50 (Malme-3M): > 100 µM (inactive)
- GI50 (UACC-62): > 100 µM (inactive)
- GI50 (IGROV-1): > 100 µM (inactive)
- GI50 (DU-145): 53 µM (inactive)
- GI50 (COLO 205): 45.7 µM (inactive)
- GI50 (786-0): > 100 µM (inactive)
- GI50 (HT-29): 58.6 µM (inactive)
- GI50 (HCT-15): 61.5 µM
- GI50 (Hs-578T): > 100 µM (inactive)
- GI50 (HCT-116): 59.7 µM (inactive)
- GI50 (CAKI-1): > 100 µM (inactive)
- GI50 (T47D): 36.8 µM (inactive)
- GI50 (LOX IMVI): > 100 µM (inactive)
- GI50 (SK-OV-3): > 100 µM (inactive)
- GI50 (OVCAR-5): > 100 µM (inactive)
- GI50 (CCRF-CEM): 37 µM (inactive)
- GI50 (A549): 58.9 µM (inactive)
- GI50 (NCI-H460): 64.6 µM (inactive)
- GI50 (HL-60): 32.5 µM (inactive)
- GI50 (ACHN): > 100 µM (inactive)
- GI50 (OVCAR-4): 32.1 µM (inactive)
- GI50 (EKVX): 86.1 µM (inactive)
- GI50 (SR): 48.9 µM (inactive)
- GI50 (UACC-257): 83.6 µM (inactive)
- GI50 (PC-3): 68.4 µM (inactive)
- GI50 (MDA-MB-435): 91.2 µM (inactive)
- GI50 (UO-31): 41.4 µM (inactive)
- GI50 (SF-295): 74.3 µM (inactive)
- GI50 (M14): > 100 µM (inactive)
- GI50 (NCI-H522): 54.8 µM (inactive)
- GI50 (HCC 2998): > 100 µM (inactive)
- GI50 (KM12): 51.4 µM (inactive)
- GI50 (SW-620): > 100 µM (inactive)
- GI50 (U-251): 69.2 µM (inactive)
- GI50 (NCI-H23): 58.3 µM (inactive)
- GI50 (OVCAR-3): 76.9 µM (inactive)
- GI50 (MDA-MB-231): > 100 µM (inactive)
- GI50 (HOP-62): > 100 µM (inactive)
- GI50 (MCF7): 81.7 µM (inactive)
- GI50 (BT-549): 65.5 µM (inactive)
- GI50 (SK-MEL-28): > 100 µM (inactive)
- GI50 (MOLT-4): 31.7 µM (inactive)
- GI50 (NCI/ADR-RES): 51.4 µM (inactive)
- GI50 (SF-268): > 100 µM (inactive)
- GI50 (K562): 47.5 µM (inactive)
- GI50 (SK-MEL-5): 26.5 µM (inactive)
- GI50 (NCI-H226): 31.3 µM (inactive)
- GI50 (SNB-19): > 100 µM (inactive)
- GI50 (MDA-N): > 100 µM (inactive)
- GI50 (RXF 393): 37.7 µM (inactive)
- GI50 (TK-10): > 100 µM (inactive)
- GI50 (HOP-92): 41.2 µM (inactive)
- GI50 (A498): 46.2 µM (inactive)
- GI50 (SN12C): > 100 µM (inactive)
- GI50 (OVCAR-8): > 100 µM (inactive)

SMILES: O=C1CC(Nc2ccccc2)c2c(Cl)sc(Cl)c21 (stereo unspecified)
- GI50 (Malme-3M): 1.42 µM (inactive)
- GI50 (SF-539): 0.527 µM (active)
- GI50 (UACC-62): 1.32 µM (inactive)
- GI50 (IGROV-1): 1.61 µM (inactive)
- GI50 (DU-145): 1.6 µM (inactive)
- GI50 (COLO 205): 0.906 µM (active)
- GI50 (786-0): 0.234 µM (active)
- GI50 (HT-29): 1.7 µM (inactive)
- GI50 (HCT-15): 0.767 µM
- GI50 (Hs-578T): 2.42 µM (inactive)
- GI50 (HCT-116): 1.19 µM (inactive)
- GI50 (CAKI-1): 0.65 µM (active)
- GI50 (T47D): 1.48 µM (inactive)
- GI50 (LOX IMVI): 0.39 µM (active)
- GI50 (SK-OV-3): 13.4 µM (inactive)
- GI50 (SK-MEL-2): 1.89 µM (inactive)
- GI50 (OVCAR-5): 2.34 µM (inactive)
- GI50 (CCRF-CEM): 0.127 µM (active)
- GI50 (A549): 2.05 µM (inactive)
- GI50 (NCI-H460): 6.37 µM (inactive)
- GI50 (HL-60): 0.199 µM (active)
- GI50 (ACHN): 1.18 µM (inactive)
- GI50 (OVCAR-4): 2.01 µM (inactive)
- GI50 (EKVX): 1.76 µM (inactive)
- GI50 (SR): 0.52 µM (active)
- GI50 (UACC-257): 1.85 µM (inactive)
- GI50 (PC-3): 1.49 µM (inactive)
- GI50 (MDA-MB-435): 1.52 µM (inactive)
- GI50 (UO-31): 1.11 µM (active)
- GI50 (SF-295): 5.11 µM (inactive)
- GI50 (M14): 1.66 µM (inactive)
- GI50 (NCI-H522): 0.139 µM (active)
- GI50 (HCC 2998): 1.76 µM (inactive)
- GI50 (KM12): 0.483 µM (active)
- GI50 (SW-620): 0.369 µM (active)
- GI50 (U-251): 1.68 µM (inactive)
- GI50 (NCI-H23): 1.91 µM (inactive)
- GI50 (OVCAR-3): 1.79 µM (inactive)
- GI50 (MDA-MB-231): 1.92 µM (inactive)
- GI50 (HOP-62): 2.57 µM (inactive)
- GI50 (MCF7): 1.47 µM (inactive)
- GI50 (BT-549): 2.22 µM (inactive)
- GI50 (SK-MEL-28): 1.86 µM (inactive)
- GI50 (RPMI-8226): < 0.01 µM (active)
- GI50 (MOLT-4): 0.484 µM (active)
- GI50 (NCI/ADR-RES): 2.42 µM (inactive)
- GI50 (SF-268): 0.778 µM (active)
- GI50 (K562): 1.12 µM (active)
- GI50 (SK-MEL-5): 4.66 µM (inactive)
- GI50 (SNB-75): 2.31 µM (inactive)
- GI50 (NCI-H226): 8.65 µM (inactive)
- GI50 (SNB-19): 5.19 µM (inactive)
- GI50 (MDA-N): 1.65 µM (inactive)
- GI50 (TK-10): 1.81 µM (inactive)
- GI50 (HOP-92): 1.41 µM (inactive)
- GI50 (A498): 2.5 µM (inactive)
- GI50 (SN12C): 1.51 µM (inactive)
- GI50 (OVCAR-8): 1.4 µM (inactive)
